# According to patent publication US6692745B2, “Compositions and methods for inhibition of HIV-1 infection” (priority 2000, dated 2004):
# Experiments:
# [1] = system: HIV-1 envelope-mediated fusion between HeLa-EnvJR-FL and PM1 cells
# Experimental: HIV-1 envelope-mediated fusion between HeLa-EnvJR-FL and PM1 cells was detected using a Resonance Energy Transfer (RET) assay.
# HIV-1 inhibition data were analyzed according to the Combination Index method of Chou and Talay.
# Equation (1) is a generalized form of the equations describing Michaelis-Menton enzyme kinetics, Langmuir adsorption isotherms, and Henderson-Hasselbalch ionization equilibria, for which m=1 in all cases. In the present case, K is equal to the IC50 value. K and m are determined by curve-fitting the dose-response curves.
# After the best-fit parameters for K and m are obtained for the experimental agents and their combination, Equation (1) is rearranged to allow for calculation of c for a given f.
# All concentrations are those required to achieve a given degree of inhibition. Equation (2) is used when the molecules are mutually nonexclusive, i.e., have different sites of action. Since this is the likely scenario for inhibitors of HIV-1 attachment and gp41 fusion intermediates, Equation (2) was used for all Combination Index calculations. Mutually nonexclusive calculations provide a more conservative estimate of the degree of synergy that mutually exclusive calculations, for which the c1mc2m/c1c2 term is dropped. CI<1 indicates synergy, CI=1 indicates purely additive effects, and CI>1 indicates antagonism. In general, CI values are most relevant at the higher levels of inhibition that are required to achieve a measurable clinical benefit.
# HIV = conditions: Phase I/II; cited from earlier work
substance,measurement,setting,value
enfuvirtide,concentration of the individual agent contained in the combination giving 95% inhibition,"[1]; 25:1 CD4-IgG2:T-20 mass ratio, calculated from known mass ratio",0.044 µg/mL
same,Dose Reduction (ratio of inhibitor concentration alone v. in synergistic combination),"[1]; 95% inhibition, 25:1 CD4-IgG2:T-20 mass ratio",5 fold
same,"K, concentration of agent required to produce the median effect (equal to the IC50 value)","[1]; HeLa-EnvJR-FL and PM1 cells, RET after 4 h, mean of three independent experiments, best-fit to median effect equation, FIG. 1",0.017 µg/mL
same,concentration required for inhibition of viral entry by 95%,"[1]; agent used alone, or total concentration of the 25:1 combination, calculated from fitted K and m, FIG. 3",0.21 µg/mL
same,reduction of plasma HIV RNA levels,HIV,≤ 2 logs
